From patent US11173137B2, “Compositions and methods to modulate chloride ion channel activity” (The Board of Trustees of the Leland Stanford Junior …, priority 2018, dated 2021)

Experiments:
CLC-1 = CLC-1 (Homo sapiens (Human), UniProt P35523); assay: IonWorks Barracuda automated patch-clamp electrophysiology, CLC-1; type: cell-based; details: for IC50: Table 2; for percent inhibition of CLC-1 at highest concentration tested (in parenthesis): at the concentration listed in the same cell
Procedure: If the IC50 was greater than the highest concentration tested, this concentration is listed along with the percent inhibition at this concentration (in parenthesis).
FIG. 8, panels A and B depict graphically the Selectivity between CLC-1 and CLC-2. […] Data points represent the mean current block at 16 different FA44 concentrations (n=4-8), using the IonWorks™ Barracuda. […] Panel B depicts a summary graph showing the mean inhibition of CLC-1 (left bar) or CLC-2 (right bar) current at 30 μM, illustrating the improvement in both selectivity and potency from the hit compound MCFA to the exemplary compound FA44.

5-HT1B = 5-HT1B (Homo sapiens (Human), UniProt P28222); assay: PDSP primary binding assay; details: primary binding assay at 10 μM
Procedure: (§1) Two exemplary compounds, FA44 and FA26, were screened against a panel of CNS receptors, transporters, and ion channels to examine specificity for CLC-2 in the brain. A comprehensive primary binding assay screen was performed through the NIH Psychoactive Drug Screening Program (PDSP) at UNC-Chapel Hill. Secondary or functional assays were performed for compounds showing >50% activity in the primary assay.

5-HT1D = 5-HT1D (Homo sapiens (Human), UniProt P28221); assay: PDSP primary binding assay; details: primary binding assay at 10 μM
Procedure: as §1

5-HT1E = 5-HT1E (Homo sapiens (Human), UniProt P28566); assay: PDSP primary binding assay; details: primary binding assay at 10 μM
Procedure: as §1

5-HT2A = 5-HT2A (Homo sapiens (Human), UniProt P28223); assay: PDSP primary binding assay; details: primary binding assay at 10 μM
Procedure: as §1

5-HT2C = 5-HT2C (Homo sapiens (Human), UniProt P28335); assay: PDSP primary binding assay; details: primary binding assay at 10 μM
5-HT2C, sequence (P28335 33-458, species assumed): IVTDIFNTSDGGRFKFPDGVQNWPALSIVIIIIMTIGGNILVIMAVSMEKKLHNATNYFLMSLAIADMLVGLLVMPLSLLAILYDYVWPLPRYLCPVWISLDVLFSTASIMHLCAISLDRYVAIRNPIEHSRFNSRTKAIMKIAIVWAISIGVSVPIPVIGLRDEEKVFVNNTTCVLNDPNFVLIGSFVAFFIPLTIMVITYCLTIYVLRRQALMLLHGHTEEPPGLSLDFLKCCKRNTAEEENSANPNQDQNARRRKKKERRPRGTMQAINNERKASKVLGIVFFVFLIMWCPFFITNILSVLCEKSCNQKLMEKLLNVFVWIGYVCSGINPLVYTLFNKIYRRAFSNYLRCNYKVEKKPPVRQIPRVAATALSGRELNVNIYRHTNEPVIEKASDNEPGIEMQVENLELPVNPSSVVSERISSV
Procedure: as §1

5-HT3 = 5-HT3 (Homo sapiens (Human), UniProt P46098); assay: PDSP primary binding assay; details: primary binding assay at 10 μM
Procedure: as §1

5-HT5A = 5-HT5A (Homo sapiens (Human), UniProt P47898); assay: PDSP primary binding assay; details: primary binding assay at 10 μM
Procedure: as §1

5-HT6 = 5-HT6 (Homo sapiens (Human), UniProt P50406); assay: PDSP primary binding assay; details: primary binding assay at 10 μM
5-HT6, sequence (P50406 whole entry, species assumed): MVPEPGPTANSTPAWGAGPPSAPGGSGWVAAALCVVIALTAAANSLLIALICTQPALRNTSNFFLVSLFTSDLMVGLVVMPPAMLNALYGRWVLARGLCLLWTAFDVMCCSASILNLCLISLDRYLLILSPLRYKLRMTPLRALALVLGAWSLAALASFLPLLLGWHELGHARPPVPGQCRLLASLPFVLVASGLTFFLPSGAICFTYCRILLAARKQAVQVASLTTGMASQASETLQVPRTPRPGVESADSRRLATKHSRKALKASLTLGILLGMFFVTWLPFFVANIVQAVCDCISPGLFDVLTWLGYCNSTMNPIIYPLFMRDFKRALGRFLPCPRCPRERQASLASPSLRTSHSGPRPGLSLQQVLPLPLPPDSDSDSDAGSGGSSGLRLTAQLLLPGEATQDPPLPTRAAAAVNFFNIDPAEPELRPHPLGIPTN
Procedure: as §1

5-HT7 = 5-HT7 (Homo sapiens (Human), UniProt P34969); assay: PDSP primary binding assay; details: primary binding assay at 10 μM
Procedure: as §1

Alpha1A = Alpha1A (Homo sapiens (Human), UniProt P35348); assay: PDSP primary binding assay; details: primary binding assay at 10 μM
Alpha1A, sequence (P35348 whole entry): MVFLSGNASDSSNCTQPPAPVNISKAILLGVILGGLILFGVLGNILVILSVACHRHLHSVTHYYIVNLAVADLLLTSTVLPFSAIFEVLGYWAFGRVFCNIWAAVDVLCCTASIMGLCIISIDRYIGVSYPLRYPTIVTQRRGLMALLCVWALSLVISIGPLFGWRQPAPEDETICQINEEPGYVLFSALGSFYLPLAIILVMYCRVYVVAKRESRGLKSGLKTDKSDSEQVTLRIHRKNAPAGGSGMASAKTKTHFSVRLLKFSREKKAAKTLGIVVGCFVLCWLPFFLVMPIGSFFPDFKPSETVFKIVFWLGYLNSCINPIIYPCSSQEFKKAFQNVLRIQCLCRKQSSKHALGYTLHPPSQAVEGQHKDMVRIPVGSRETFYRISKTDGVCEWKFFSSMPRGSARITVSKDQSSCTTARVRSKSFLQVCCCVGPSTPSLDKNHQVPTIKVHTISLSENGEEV
Procedure: as §1

Alpha1D = Alpha1D (Homo sapiens (Human), UniProt P25100); assay: PDSP primary binding assay; details: primary binding assay at 10 μM
Procedure: as §1

Alpha2B = Alpha2B (Homo sapiens (Human), UniProt P18089); assay: PDSP primary binding assay; details: primary binding assay at 10 μM
Procedure: as §1

Alpha2C = Alpha2C (Homo sapiens (Human), UniProt P18825); assay: PDSP primary binding assay; details: primary binding assay at 10 μM
Procedure: as §1

BZP rat brain site = assay: PDSP primary binding assay; details: primary binding assay at 10 μM
Procedure: as §1

Beta1 = Beta1 (Homo sapiens (Human), UniProt P08588); assay: PDSP primary binding assay; details: primary binding assay at 10 μM
Procedure: as §1

Beta3 = Beta3 (Homo sapiens (Human), UniProt P13945); assay: PDSP primary binding assay; details: primary binding assay at 10 μM
Procedure: as §1

Calcium channel = assay: PDSP primary binding assay; details: primary binding assay at 10 μM
Procedure: as §1

D1 = D1 (Homo sapiens (Human), UniProt P21728); assay: PDSP primary binding assay; details: primary binding assay at 10 μM
Procedure: as §1

D2 = D2 (Homo sapiens (Human), UniProt P14416); assay: PDSP primary binding assay; details: primary binding assay at 10 μM
Procedure: as §1

D3 = D3 (Homo sapiens (Human), UniProt P35462); assay: PDSP primary binding assay; details: primary binding assay at 10 μM
D3, sequence (P35462 whole entry): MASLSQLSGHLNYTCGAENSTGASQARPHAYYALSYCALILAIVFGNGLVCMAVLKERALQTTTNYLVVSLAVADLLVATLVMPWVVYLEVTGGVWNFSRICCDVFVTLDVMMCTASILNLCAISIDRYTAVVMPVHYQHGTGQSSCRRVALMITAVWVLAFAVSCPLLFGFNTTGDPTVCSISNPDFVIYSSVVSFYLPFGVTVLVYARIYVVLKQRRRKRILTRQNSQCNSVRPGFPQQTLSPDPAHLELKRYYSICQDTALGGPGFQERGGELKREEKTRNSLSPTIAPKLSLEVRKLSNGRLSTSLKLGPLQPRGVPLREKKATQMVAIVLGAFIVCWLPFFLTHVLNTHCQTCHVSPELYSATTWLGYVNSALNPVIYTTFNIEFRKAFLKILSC
Procedure: as §1

D4 = D4 (Homo sapiens (Human), UniProt P21917); assay: PDSP primary binding assay; details: primary binding assay at 10 μM
D4, sequence (P21917 whole entry): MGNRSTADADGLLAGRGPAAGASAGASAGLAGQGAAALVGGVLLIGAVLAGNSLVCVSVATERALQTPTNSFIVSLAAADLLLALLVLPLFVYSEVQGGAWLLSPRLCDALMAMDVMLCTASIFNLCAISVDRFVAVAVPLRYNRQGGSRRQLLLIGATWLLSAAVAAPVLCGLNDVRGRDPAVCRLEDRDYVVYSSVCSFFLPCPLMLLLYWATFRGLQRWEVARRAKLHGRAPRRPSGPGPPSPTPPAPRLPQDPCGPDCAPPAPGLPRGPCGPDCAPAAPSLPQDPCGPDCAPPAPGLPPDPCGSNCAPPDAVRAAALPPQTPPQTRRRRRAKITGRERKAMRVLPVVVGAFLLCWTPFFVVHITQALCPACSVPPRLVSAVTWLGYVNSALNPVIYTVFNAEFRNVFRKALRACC
Procedure: as §1

D5 = D5 (Homo sapiens (Human), UniProt P21918); assay: PDSP primary binding assay; details: primary binding assay at 10 μM
Procedure: as §1

DAT = DAT (Homo sapiens (Human), UniProt Q01959); assay: PDSP primary binding assay; details: primary binding assay at 10 μM
DAT, sequence (Q01959 whole entry, species assumed): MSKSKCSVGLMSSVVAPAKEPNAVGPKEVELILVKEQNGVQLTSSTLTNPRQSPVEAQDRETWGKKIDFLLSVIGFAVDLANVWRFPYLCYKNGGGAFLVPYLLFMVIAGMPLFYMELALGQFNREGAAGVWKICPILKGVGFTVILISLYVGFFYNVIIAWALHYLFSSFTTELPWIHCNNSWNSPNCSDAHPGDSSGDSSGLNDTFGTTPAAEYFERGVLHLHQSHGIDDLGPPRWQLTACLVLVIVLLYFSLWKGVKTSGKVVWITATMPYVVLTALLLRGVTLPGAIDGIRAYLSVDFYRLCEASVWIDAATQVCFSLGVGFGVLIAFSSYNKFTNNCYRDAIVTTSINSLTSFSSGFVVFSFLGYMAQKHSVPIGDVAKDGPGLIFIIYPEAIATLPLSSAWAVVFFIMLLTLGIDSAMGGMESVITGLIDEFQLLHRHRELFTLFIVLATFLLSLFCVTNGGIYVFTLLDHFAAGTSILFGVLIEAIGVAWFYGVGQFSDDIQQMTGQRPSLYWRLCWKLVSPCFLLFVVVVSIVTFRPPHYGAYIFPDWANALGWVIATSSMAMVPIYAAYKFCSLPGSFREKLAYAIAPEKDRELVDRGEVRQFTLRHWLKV
Procedure: as §1

DOR = DOR (Homo sapiens (Human), UniProt P41143); assay: PDSP primary binding assay; details: primary binding assay at 10 μM
Procedure: as §1

GABAA = assay: PDSP primary binding assay; details: primary binding assay at 10 μM
Procedure: as §1

H1 = H1 (Homo sapiens (Human), UniProt P35367); assay: PDSP primary binding assay; details: primary binding assay at 10 μM
Procedure: as §1

H2 = H2 (Homo sapiens (Human), UniProt P25021); assay: PDSP primary binding assay; details: primary binding assay at 10 μM
H2, sequence (P25021 whole entry): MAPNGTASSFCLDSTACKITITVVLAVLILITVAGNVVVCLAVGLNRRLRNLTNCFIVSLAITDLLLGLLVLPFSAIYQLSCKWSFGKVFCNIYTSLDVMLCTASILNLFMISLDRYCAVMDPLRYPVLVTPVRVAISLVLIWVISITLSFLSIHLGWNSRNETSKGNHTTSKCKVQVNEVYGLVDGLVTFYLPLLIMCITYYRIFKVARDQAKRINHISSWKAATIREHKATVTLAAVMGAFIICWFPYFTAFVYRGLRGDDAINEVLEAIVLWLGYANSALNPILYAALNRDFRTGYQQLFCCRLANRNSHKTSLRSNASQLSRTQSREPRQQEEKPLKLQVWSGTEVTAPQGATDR
Procedure: as §1

H3 = H3 (Homo sapiens (Human), UniProt Q9Y5N1); assay: PDSP primary binding assay; details: primary binding assay at 10 μM
H3, sequence (Q9Y5N1 whole entry): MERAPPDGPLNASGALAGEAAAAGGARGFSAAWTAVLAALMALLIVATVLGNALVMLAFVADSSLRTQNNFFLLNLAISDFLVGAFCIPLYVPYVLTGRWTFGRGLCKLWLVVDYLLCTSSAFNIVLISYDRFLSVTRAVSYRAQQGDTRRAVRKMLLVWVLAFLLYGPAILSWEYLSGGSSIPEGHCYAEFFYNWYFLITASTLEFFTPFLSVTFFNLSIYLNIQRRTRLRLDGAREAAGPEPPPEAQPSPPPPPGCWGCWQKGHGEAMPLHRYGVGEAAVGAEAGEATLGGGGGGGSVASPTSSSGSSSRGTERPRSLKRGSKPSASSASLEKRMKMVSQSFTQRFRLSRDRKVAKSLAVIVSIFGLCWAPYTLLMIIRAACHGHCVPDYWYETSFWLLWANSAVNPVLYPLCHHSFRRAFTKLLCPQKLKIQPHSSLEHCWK
Procedure: as §1

M2 = M2 (Homo sapiens (Human), UniProt P08172); assay: PDSP primary binding assay; details: primary binding assay at 10 μM
Procedure: as §1

MOR = MOR (Homo sapiens (Human), UniProt P35372); assay: PDSP primary binding assay; details: primary binding assay at 10 μM
Procedure: as §1

NET = NET (Homo sapiens (Human), UniProt P23975); assay: PDSP primary binding assay; details: primary binding assay at 10 μM
Procedure: as §1

NMDA = assay: PDSP primary binding assay; details: primary binding assay at 10 μM
Procedure: as §1

NOP = NOP (Homo sapiens (Human), UniProt P41146); assay: PDSP primary binding assay; details: primary binding assay at 10 μM
Procedure: as §1

Oxytocin = Oxytocin (Homo sapiens (Human), UniProt P30559); assay: PDSP primary binding assay; details: primary binding assay at 10 μM
Procedure: as §1

PBR = PBR (Homo sapiens (Human), UniProt P30536); assay: PDSP primary binding assay; details: primary binding assay at 10 μM
PBR, sequence (P30536 whole entry, species assumed): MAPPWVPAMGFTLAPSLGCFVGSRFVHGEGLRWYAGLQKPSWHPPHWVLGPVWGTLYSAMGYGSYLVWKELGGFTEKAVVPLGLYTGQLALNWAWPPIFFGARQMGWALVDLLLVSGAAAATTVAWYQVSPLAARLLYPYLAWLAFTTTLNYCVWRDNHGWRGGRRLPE
Procedure: as §1

SERT = SERT (Homo sapiens (Human), UniProt P31645); assay: PDSP primary binding assay; details: primary binding assay at 10 μM
Procedure: as §1

Sigma 1 = Sigma 1 (Homo sapiens (Human), UniProt Q99720); assay: PDSP primary binding assay; details: primary binding assay at 10 μM
Sigma 1, sequence (Q99720 whole entry): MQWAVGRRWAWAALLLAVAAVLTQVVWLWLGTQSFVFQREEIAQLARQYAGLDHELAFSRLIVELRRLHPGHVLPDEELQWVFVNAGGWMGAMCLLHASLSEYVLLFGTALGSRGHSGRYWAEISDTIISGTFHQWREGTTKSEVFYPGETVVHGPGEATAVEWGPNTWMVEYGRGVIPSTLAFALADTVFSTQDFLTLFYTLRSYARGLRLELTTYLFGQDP
Procedure: as §1

CLC-1, sequence (P35523 whole entry): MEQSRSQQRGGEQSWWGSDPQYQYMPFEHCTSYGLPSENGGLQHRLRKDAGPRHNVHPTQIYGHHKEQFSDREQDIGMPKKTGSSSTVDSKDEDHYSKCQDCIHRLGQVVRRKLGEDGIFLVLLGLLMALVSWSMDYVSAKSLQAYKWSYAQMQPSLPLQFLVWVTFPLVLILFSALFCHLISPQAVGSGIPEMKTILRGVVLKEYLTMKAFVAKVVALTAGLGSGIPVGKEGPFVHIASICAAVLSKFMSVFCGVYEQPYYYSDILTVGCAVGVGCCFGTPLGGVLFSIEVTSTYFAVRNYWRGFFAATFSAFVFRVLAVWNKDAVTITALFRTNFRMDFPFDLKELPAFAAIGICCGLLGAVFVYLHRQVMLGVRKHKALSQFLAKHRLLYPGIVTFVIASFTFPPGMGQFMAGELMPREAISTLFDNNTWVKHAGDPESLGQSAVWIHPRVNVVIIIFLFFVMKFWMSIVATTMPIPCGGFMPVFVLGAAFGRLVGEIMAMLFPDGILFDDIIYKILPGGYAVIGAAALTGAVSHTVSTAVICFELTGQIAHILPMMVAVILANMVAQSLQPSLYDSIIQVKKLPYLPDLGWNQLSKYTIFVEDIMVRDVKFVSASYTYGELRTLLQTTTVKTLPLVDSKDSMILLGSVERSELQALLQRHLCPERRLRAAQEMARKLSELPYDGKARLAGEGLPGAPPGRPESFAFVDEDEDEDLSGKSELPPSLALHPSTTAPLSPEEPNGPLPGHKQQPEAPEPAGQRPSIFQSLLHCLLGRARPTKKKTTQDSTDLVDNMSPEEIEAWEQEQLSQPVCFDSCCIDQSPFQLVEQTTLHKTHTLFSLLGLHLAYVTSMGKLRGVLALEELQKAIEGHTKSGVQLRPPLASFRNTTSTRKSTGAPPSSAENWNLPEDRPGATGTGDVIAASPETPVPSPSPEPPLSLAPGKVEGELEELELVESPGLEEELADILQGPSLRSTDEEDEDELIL

Structure (SMILES)	IC50 (CLC-1)	percent inhibition of CLC-1 at highest concentration tested (in parenthesis) (CLC-1)	% (10 μM) (5-HT1B)	% (10 μM) (5-HT1D)	% (10 μM) (5-HT1E)	% (10 μM) (5-HT2A)	% (10 μM) (5-HT2C)	% (10 μM) (5-HT3)	% (10 μM) (5-HT5A)	% (10 μM) (5-HT6)	% (10 μM) (5-HT7)	% (10 μM) (Alpha1A)	% (10 μM) (Alpha1D)	% (10 μM) (Alpha2B)	% (10 μM) (Alpha2C)	% (10 μM) (BZP rat brain site)	% (10 μM) (Beta1)	% (10 μM) (Beta3)	% (10 μM) (Calcium channel)	% (10 μM) (D1)	further results
O=C(O)c1ccccc1Nc1c(Cl)ccc(OCc2ccccc2)c1Cl [AK3-99B]	> 30 µM	25%	−0.25%	6.77%	11.82%	19.70%	−11.17%	−7.63%	−5.77%	−10.67%	−29.75%	24.26%	7.20%	15.62%	17.28%	40.75%	−13.11%	32.58%	12.22%	27.05%	% (10 μM) (D2): −6.96%; % (10 μM) (D3): 18.42%; % (10 μM) (D4): −0.19%; % (10 μM) (D5): 27.29%; % (10 μM) (DAT): −17.73%; % (10 μM) (DOR): 16.22%; % (10 μM) (GABAA): −17.65%; % (10 μM) (H1): −4.62%; % (10 μM) (H2): 25.62%; % (10 μM) (H3): −5.97%; % (10 μM) (M2): 14.57%; % (10 μM) (MOR): 9.03%; % (10 μM) (NET): 33.59%; % (10 μM) (NMDA): 39.29%; % (10 μM) (NOP): 24.65%; % (10 μM) (Oxytocin): 8.80%; % (10 μM) (PBR): 2.28%; % (10 μM) (SERT): 4.65%; % (10 μM) (Sigma 1): 3.95%
O=C(O)c1cccnc1Nc1c(Cl)ccc(OCc2ccccc2)c1Cl [AK3-238]	> 100 µM	22%	49.89%	44.06%	10.43%	18.91%	−13.39%	28.75%	28.19%	18.68%	17.51%	12.29%	−10.12%	−28.62%	3.41%	29.32%	22.04%	24.76%	23.69%	−9.96%	% (10 μM) (D2): 7.69%; % (10 μM) (D3): −4.66%; % (10 μM) (D4): −0.65%; % (10 μM) (D5): 31.58%; % (10 μM) (DAT): 9.23%; % (10 μM) (DOR): 16.59%; % (10 μM) (GABAA): −4.29%; % (10 μM) (H1): 15.48%; % (10 μM) (H2): 5.35%; % (10 μM) (H3): −0.92%; % (10 μM) (M2): −8.25%; % (10 μM) (MOR): −0.18%; % (10 μM) (NET): 17.36%; % (10 μM) (NMDA): 24.18%; % (10 μM) (NOP): 21.14%; % (10 μM) (Oxytocin): −1.41%; % (10 μM) (PBR): 8.22%; % (10 μM) (SERT): 30.25%; % (10 μM) (Sigma 1): 38.52%
